Experimental data taken from patent publication US20240115589A1, “PHARMACEUTICAL COMPOSITION FOR PREVENTING CYTOKINE STORM” (KINKI UNIVERSITY, priority 2021, published 2024).

How the values were obtained:
IL-6 mRNA [1] = assay: LPS-stimulated IL-6 mRNA expression in mouse macrophages (real time PCR); format: cell-based; details: then 10 μg/mL LPS 4 h, vs LPS-treated group
Method: (§1) Mouse macrophages were pre-cultured with RPMI1640 medium for 1 day. After incubation, mouse macrophages were treated with 10 μM mangiferin 8a, 10 μM norathyriol, 1 μM M9, and 1 μM M14 for 1 day. Then, 10 μg/mL LPS was added to mouse macrophages and cultured for 4 h. After incubation, cells were collected, RNA was extracted, and TNFα mRNA expression was measured by real time PCR.
The inhibitory effect of compounds on IL-6 mRNA expression involved in cytokine storm was examined using mouse macrophages.
The experimental procedure is the same as in Example 3. […] For controls, only 0.5% DMSO (diluted in PBS) used to dissolve the compounds was added. 10 μg/mL LPS administered is called the LPS-treated group, LPS and mangiferin 8a administered in combination is called the mangiferin 8a-treated group, LPS and norathyriol administered in combination is called the norathyriol group, LPS and M9 administered in combination is called the M9-treated group, LPS and M14 administered in combination is called the M14-treated group, respectively.

TNFα [2] = assay: LPS-stimulated TNFα production in mouse B cells (ELISA); format: cell-based; details: culture supernatant, then 10 μg/mL LPS 2 days, control 15.13, LPS alone 296.31 pg/mL
Method: The inhibitory effect of compounds on TNFα production involved in cytokine storm was examined using mouse B cells.
(§2) Mouse B cells were pre-cultured with RPMI1640 medium for 1 day. After incubation, mouse B cells were treated with 10 μM mangiferin 8a, 10 μM norathyriol, 1 μM M9, and 1 μM M14 for 1 day. Then, 10 μg/mL LPS was added to mouse B cells and cultured for 2 days. After incubation, the culture supernatant was collected and TNFα production was determined by enzyme-linked immunosorbent assay (ELISA). This measurement was performed using a mouse TNFα ELISA kit (R&D).

TNFα mRNA [3] = assay: LPS-stimulated TNFα mRNA expression in mouse macrophages (real time PCR); format: cell-based; details: then 10 μg/mL LPS 4 h, vs LPS-treated group
Method: The inhibitory effect of compounds on TNFα mRNA expression involved in cytokine storm was examined using mouse macrophages.
as §1
(§3) For controls, only 0.5% DMSO (diluted in PBS) used to dissolve the compounds was added. 10 μg/mL LPS administered is called the LPS-treated group, LPS and mangiferin 8a administered in combination is called the mangiferin 8a-treated group, LPS and norathyriol administered in combination is called the norathyriol group, LPS and M9 administered in combination is called the M9-treated group, LPS and M14 administered in combination is called the M14-treated group, respectively.

TNFα [4] = assay: LPS-stimulated TNFα production in mouse macrophages (ELISA); format: cell-based; details: culture supernatant, then 10 μg/mL LPS 2 days, control 24.11, LPS alone 421.13 pg/mL
Method: The inhibitory effect of compounds on TNFα production involved in cytokine storm was examined using mouse macrophages.
as §2, with “macrophages” for “B cells”

IL-6 mRNA [5] = assay: LPS-stimulated IL-6 mRNA expression in mouse B cells (real time PCR); format: cell-based; details: then 10 μg/mL LPS 4 h, vs LPS-treated group
Method: as §1, with “B cells” for “macrophages”
The inhibitory effect of compounds on IL-6 mRNA expression involved in cytokine storm was examined using mouse B cells. The experimental procedure is the same as in Example 1.
as §3

male C57BL/6J = assay: Survival rate of mice treated with compound and LPS (lethality in cytokine storm); format: in vivo; details: C57BL/6J mice, 25 mg/kg LPS i.p. 5 min later, day 2, compared to LPS group
Method: Six-week-old male C57BL/6J (SHIMIZU Laboratory Supplies Co., Ltd.) were orally administered 50 mg/kg mangiferin 8a, 100 mg/kg norathyriol, 50 mg/kg M9, and 50 mg/kg M14. Five minutes later, 25 mg/kg LPS was administered intraperitoneally. The day of administration was set as day 0, and the survival rate was measured on day 2.
(§4) Those not receiving the compound and LPS are referred to as the control group, those receiving 25 mg/kg LPS are referred to as the LPS group, those receiving 50 mg/kg mangiferin 8a and 25 mg/kg LPS are referred to as the mangiferin 8a-treated group, those receiving 100 mg/kg norathyriol and 25 mg/kg LPS are referred to as the norathyriol-treated group, those receiving 50 mg/kg M9 and 25 mg/kg LPS are referred to as the M9-treated group, and those receiving 50 mg/kg M14 and 25 mg/kg LPS are referred to as the M14-treated group.
Referring to FIG. 9, the horizontal axis indicates compound treatment, and the vertical axis indicates survival rate (%).

TNFα mRNA [6] = assay: LPS-stimulated TNFα mRNA expression in mouse B cells (real time PCR); format: cell-based; details: then 10 μg/mL LPS 4 h, vs LPS-treated group
Method: The inhibitory effect of compounds on TNFα mRNA expression involved in cytokine storm was examined using mouse B cells.
as §1, with “B cells” for “macrophages”
as §3

IL-6 [7] = assay: LPS-stimulated IL-6 production in mouse macrophages (ELISA); format: cell-based; details: culture supernatant, then 10 μg/mL LPS 2 days, control 13.13, LPS alone 321.13 pg/mL
Method: The inhibitory effect of compounds on IL-6 production involved in cytokine storm was examined using mouse macrophages.
as §2, with “macrophages” for “B cells”, “IL-6” for “TNFα”

IL-6 [8] = assay: Serum IL-6 production in mice treated with compound and LPS (ELISA); format: in vivo; details: C57BL/6J mice, 25 mg/kg LPS i.p., serum 2 hours after LPS, control 2.75, LPS alone 20.1 ng/mL
Method: (§5) Six-week-old male C57BL/6J (Shimizu experimental material) was orally administered 100 mg/kg norathyriol, 50 mg/kg M9, and 50 mg/kg M14. Five minutes later, 25 mg/kg LPS was administered intraperitoneally. Serum was collected from mice 2 hours after LPS administration, and the amount of IL-6 production involved in the cytokine storm was measured by enzyme-linked immunosorbent assay (ELISA). This measurement was performed using a mouse IL-6 ELISA kit (R&D).
as §4, with “LPS” for “LPS group, those receiving 50 mg/kg mangiferin 8a and 25 mg/kg LPS are referred to as the mangiferin 8a-treated”

IL-6 [9] = assay: LPS-stimulated IL-6 production in mouse B cells (ELISA); format: cell-based; details: culture supernatant, then 10 μg/mL LPS 2 days, control 9.46, LPS alone 246.13 pg/mL
Method: The inhibitory effect of compounds on IL-6 production involved in cytokine storm was examined using mouse B cells.
as §2, with “IL-6” for “TNFα”, “IL-6 ELISAkit” for “TNFα ELISA kit”

TNFα [10] = assay: Serum TNFα production in mice treated with compound and LPS (ELISA); format: in vivo; details: C57BL/6J mice, 25 mg/kg LPS i.p., serum 2 hours after LPS, control 1.55, LPS alone 10.28 ng/mL
Method: as §5, with “TNFα” for “IL-6”
as §4, with “LPS” for “LPS group, those receiving 50 mg/kg mangiferin 8a and 25 mg/kg LPS are referred to as the mangiferin 8a-treated”

| SMILES | LPS-induced IL-6 mRNA expression (ratio to GAPDH mRNA) (IL-6 mRNA [1]; 10 μM compound 1 day) | TNFα production (TNFα [2]; 10 μM compound 1 day) [pg/mL] | LPS-induced TNFα mRNA expression (ratio to GAPDH mRNA) (TNFα mRNA [3]; 10 μM compound 1 day) | TNFα production (TNFα [4]; 10 μM compound 1 day) [pg/mL] | LPS-induced IL-6 mRNA expression (ratio to GAPDH mRNA) (IL-6 mRNA [5]; 10 μM compound 1 day) | LPS-induced TNFα mRNA expression (ratio to GAPDH mRNA) (TNFα mRNA [6]; 10 μM compound 1 day) | IL-6 production (IL-6 [7]; 10 μM compound 1 day) [pg/mL] | IL-6 production (IL-6 [9]; 10 μM compound 1 day) [pg/mL] | survival rate (male C57BL/6J; 50 mg/kg oral) | LPS-induced IL-6 mRNA expression (ratio to GAPDH mRNA) (IL-6 mRNA [1]; 1 μM compound 1 day) | TNFα production (TNFα [2]; 1 μM compound 1 day) [pg/mL] | LPS-induced TNFα mRNA expression (ratio to GAPDH mRNA) (TNFα mRNA [3]; 1 μM compound 1 day) | TNFα production (TNFα [4]; 1 μM compound 1 day) [pg/mL] | LPS-induced IL-6 mRNA expression (ratio to GAPDH mRNA) (IL-6 mRNA [5]; 1 μM compound 1 day) | LPS-induced TNFα mRNA expression (ratio to GAPDH mRNA) (TNFα mRNA [6]; 1 μM compound 1 day) | IL-6 production (IL-6 [7]; 1 μM compound 1 day) [pg/mL] | IL-6 production in serum (IL-6 [8]; 50 mg/kg oral) [ng/mL] | IL-6 production (IL-6 [9]; 1 μM compound 1 day) [pg/mL] | TNFα production in serum (TNFα [10]; 50 mg/kg oral) [ng/mL] | further results |
| --- | --- | --- | --- | --- | --- | --- | --- | --- | --- | --- | --- | --- | --- | --- | --- | --- | --- | --- | --- | --- |
| O=c1c2cc(O)c(O)cc2oc2cc(O)cc(O)c12 [norathyriol, 1,3,6,7-tetrahydroxyxanthone] | decrease in LPS-induced IL-6 mRNA expression | 64.13 | decrease in LPS-induced TNFα mRNA expression | 68.13 | decrease in LPS-induced IL-6 mRNA expression | decrease in LPS-induced TNFα mRNA expression | 64.13 | 56.13 |  |  |  |  |  |  |  |  |  |  |  | survival rate (male C57BL/6J; 100 mg/kg oral): significantly reduced the decrease in survival; IL-6 production in serum (IL-6 [8]; 100 mg/kg oral): 11.37 ng/mL; TNFα production in serum (TNFα [10]; 100 mg/kg oral): 2.71 ng/mL |
| CCC(=O)OC[C@H]1O[C@@H](c2c(O)cc3oc4cc(O)c(O)cc4c(=O)c3c2OC(=O)CC)[C@H](OC(=O)CC)[C@@H](OC(=O)CC)[C@@H]1OC(=O)CC [mangiferin 8a, 1,2′,3′,4′,6′-penta-O-propionylmangiferin] | decrease in LPS-induced IL-6 mRNA expression | 59.31 | decrease in LPS-induced TNFα mRNA expression | 65.13 | decrease in LPS-induced IL-6 mRNA expression | decrease in LPS-induced TNFα mRNA expression | 69.16 | 54.13 | significantly reduced the decrease in survival |  |  |  |  |  |  |  |  |  |  |  |
| CCC(=O)OC[C@H]1O[C@@H](c2c(O)cc3oc4cc(O)c(O)cc4c(=O)c3c2O)[C@H](OC(=O)CC)[C@@H](OC(=O)CC)[C@@H]1OC(=O)CC [M9, 2′,3′,4′,6′-tetra-O-propionylmangiferin] |  |  |  |  |  |  |  |  | significantly reduced the decrease in survival | decrease in LPS-induced IL-6 mRNA expression | 55.13 | decrease in LPS-induced TNFα mRNA expression | 58.13 | decrease in LPS-induced IL-6 mRNA expression | decrease in LPS-induced TNFα mRNA expression | 49.46 | 15.15 | 45.12 | 5.68 |  |
| CCCC(=O)OC[C@H]1O[C@@H](c2c(O)cc3oc4cc(O)c(O)cc4c(=O)c3c2O)[C@H](OC(=O)CCC)[C@@H](OC(=O)CCC)[C@@H]1OC(=O)CCC [M14, 2′,3′,4′,6′-tetra-O-butyrylmangiferin] |  |  |  |  |  |  |  |  | significantly reduced the decrease in survival | decrease in LPS-induced IL-6 mRNA expression | 46.13 | decrease in LPS-induced TNFα mRNA expression | 54.13 | decrease in LPS-induced IL-6 mRNA expression | decrease in LPS-induced TNFα mRNA expression | 45.13 | 14.26 | 45.13 | 5.2 |  |
